Measured values published in patent US20240279298A1 (BEIJING TUO JIE BIOPHARMACEUTICAL CO. LTD., priority 2021, published 2024).
Where a SMILES comes first, the peptide text is derived from it. [ ]: non-standard residue; d: D form. Aib = CC(C)(N)C(=O)O

What was measured:
[1] = test system: normal rats (blood glucose); test: Efficacy in normoglycemic rat model; assay type: in vivo, SD rats; conditions: for Blood glucose 15 min / Blood glucose 30 min / Blood glucose 45 min / Blood glucose 60 min: normal rats; for Hyperglycemic efficacy (in words): normoglycemic rats, subcutaneous
Experimental: Male SD rats (Sprague-Dawley rats) aged 7-8 weeks were acclimatized for one week. […] The animals were deprived of food 4 hours before and during the experiment, but were provided with free access to water.

[2] = target: T1, human glucagon receptor (GCGR) (Homo sapiens, UniProt P47871); test: Agonist activity assay for GCGR (cAMP HTRF); assay type: cell-based; conditions: normalized by the activity of the native glucagon
T1 construct: expressed in transfected cells
T1 sequence (P47871 26-477): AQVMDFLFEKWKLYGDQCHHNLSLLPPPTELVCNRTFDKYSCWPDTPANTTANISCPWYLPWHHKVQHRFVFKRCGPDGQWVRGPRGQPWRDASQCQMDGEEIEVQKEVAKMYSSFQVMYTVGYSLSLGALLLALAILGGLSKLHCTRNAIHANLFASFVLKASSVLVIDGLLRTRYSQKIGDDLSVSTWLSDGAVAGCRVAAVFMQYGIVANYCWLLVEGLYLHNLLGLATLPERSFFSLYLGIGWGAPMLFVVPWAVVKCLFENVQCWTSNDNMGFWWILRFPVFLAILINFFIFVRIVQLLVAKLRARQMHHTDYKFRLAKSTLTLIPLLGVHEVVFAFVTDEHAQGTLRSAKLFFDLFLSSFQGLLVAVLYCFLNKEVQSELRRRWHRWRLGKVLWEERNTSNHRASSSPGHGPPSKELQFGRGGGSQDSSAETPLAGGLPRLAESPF
Experimental: The activation of GCGR by related compounds will stimulate the formation of cyclic adenosine monophosphate (cAMP) in cells. Thus, the receptor activity can be monitored by cAMP production in proper cells expressing the receptor. […] The cells were passaged at least once for subsequent tests. Before testing, the cells were trypsinized, centrifuged, washed once, and resuspended in serum-free DMEM/F12 medium. The cell density was adjusted, and the cells were plated in a 96-well plate at a density of 2,500 cells/5 μL/well. […] The mixture was mixed well by moderate vibration, and incubated for 1 hour at room temperature away from light.

[3] = 0.5 nmol/kg subcutaneous single dose
[4] = 2 nmol/kg subcutaneous single dose
[5] = 6 nmol/kg subcutaneous single dose

Relative activity [2]: 318%
SMILES: CC(C)C[C@H](NC(=O)[C@H](Cc1ccc(O)cc1)NC(=O)[C@H](CCCCN)NC(=O)[C@H](CO)NC(=O)[C@H](Cc1ccc(O)cc1)NC(=O)[C@H](CC(=O)O)NC(=O)[C@H](CO)NC(=O)[C@@H](NC(=O)[C@H](Cc1ccccc1)NC(=O)[C@@H](NC(=O)CNC(=O)[C@H](CCC(N)=O)NC(=O)[C@H](CO)NC(=O)[C@@H](N)Cc1c[nH]cn1)[C@@H](C)O)[C@@H](C)O)C(=O)N[C@@H](CC(=O)O)C(=O)N[C@@H](CC(C)C)C(=O)NC(C)(C)C(=O)N[C@@H](CCCNC(=N)N)C(=O)N[C@@H](C)C(=O)N[C@@H](CCC(N)=O)C(=O)N[C@@H](CCC(=O)O)C(=O)N[C@@H](Cc1ccccc1)C(=O)N[C@H](C(=O)N[C@@H](CCC(N)=O)C(=O)N[C@@H](Cc1c[nH]c2ccccc12)C(=O)N[C@@H](CC(C)C)C(=O)N[C@@H](CCC(=O)O)C(=O)N[C@@H](CO)C(=O)N[C@H](C(=O)O)[C@@H](C)O)C(C)C [Compound 40] (H-HSQGTFTSDYSKYLDL[Aib]RAQEFVQWLEST-OH)
Blood glucose 15 min [1, 3]: 9.45 mmol/L
Blood glucose 30 min [1, 3]: 8.55 mmol/L
Blood glucose 45 min [1, 3]: 6.93 mmol/L
Blood glucose 60 min [1, 3]: 6.10 mmol/L
Blood glucose 15 min [1, 4]: 8.60 mmol/L
Blood glucose 30 min [1, 4]: 9.52 mmol/L
Blood glucose 45 min [1, 4]: 8.35 mmol/L
Blood glucose 60 min [1, 4]: 6.40 mmol/L
Blood glucose 15 min [1, 5]: 9.63 mmol/L
Blood glucose 30 min [1, 5]: 10.22 mmol/L
Blood glucose 45 min [1, 5]: 8.83 mmol/L
Blood glucose 60 min [1, 5]: 7.10 mmol/L
Hyperglycemic efficacy (in words) ([1]; listed as Glucagon analog 40): raised the blood glucose level in rats in a dose-dependent manner
Hyperglycemic efficacy (in words) ([1]; listed as glucagon analog 40): significantly better than that of Dasiglucagon
